In paper PMC11440591 (Journal of Medicinal Chemistry, 2024):
Read-outs that look alike come from different tables or passages of the source.

Tests used:
[1] = target: T1, hERG potassium channel (Homo sapiens, UniProt Q12809); assay: cell-based
[2] = target: Nav1.5 (Homo sapiens, UniProt Q14524); assay: in vitro
[3] = in vitro; conditions: CD-1, mouse, microsomes, pH 7.4
[4] = test system: EBOV-GP-pseudotyped virus (pEBOV); assay: microbe, parasite or virus in culture; conditions: Vesicular stomatitis virus, Vero C1008, 24 h, read-out: EC50 (pEBOV)
[5] = male, BALB/c, mouse, in vivo
[6] = in vitro; conditions: human, microsomes, pH 7.4
[7] = test system: pseudotypes with the SUDV envelope (pSUDV); assay: microbe, parasite or virus in culture; format: cell-based; conditions: Sudan ebolavirus, read-out: EC50 (pSUDV)
[8] = test system: VSV-G-pseudotype virus (pVSV-G); assay: microbe, parasite or virus in culture; format: cell-based; conditions: Vesicular stomatitis virus, read-out: %inh@10µM (pVSV-G)
[9] = in vivo; conditions: both, C57BL/6, mouse, po
[10] = test system: wild-type Zaire EBOV Mayinga 1976 strain (EBOV May); assay: microbe, parasite or virus in culture; conditions: Zaire ebolavirus, Vero C1008, 72 h, read-out: EC50 (EBOV May)
[11] = target: EBOV-GPcl/NPC1-domain C interaction (Zaire ebolavirus, UniProt Q05320); format: binding, EBOV; Homo sapiens
[12] = in vivo; conditions: male, BALB/c, mouse
[13] = target: T1, hERG potassium channel; assay: in vitro
[14] = in vitro; conditions: chlorocebus sabaeus

T1 sequence (Q12809 whole entry): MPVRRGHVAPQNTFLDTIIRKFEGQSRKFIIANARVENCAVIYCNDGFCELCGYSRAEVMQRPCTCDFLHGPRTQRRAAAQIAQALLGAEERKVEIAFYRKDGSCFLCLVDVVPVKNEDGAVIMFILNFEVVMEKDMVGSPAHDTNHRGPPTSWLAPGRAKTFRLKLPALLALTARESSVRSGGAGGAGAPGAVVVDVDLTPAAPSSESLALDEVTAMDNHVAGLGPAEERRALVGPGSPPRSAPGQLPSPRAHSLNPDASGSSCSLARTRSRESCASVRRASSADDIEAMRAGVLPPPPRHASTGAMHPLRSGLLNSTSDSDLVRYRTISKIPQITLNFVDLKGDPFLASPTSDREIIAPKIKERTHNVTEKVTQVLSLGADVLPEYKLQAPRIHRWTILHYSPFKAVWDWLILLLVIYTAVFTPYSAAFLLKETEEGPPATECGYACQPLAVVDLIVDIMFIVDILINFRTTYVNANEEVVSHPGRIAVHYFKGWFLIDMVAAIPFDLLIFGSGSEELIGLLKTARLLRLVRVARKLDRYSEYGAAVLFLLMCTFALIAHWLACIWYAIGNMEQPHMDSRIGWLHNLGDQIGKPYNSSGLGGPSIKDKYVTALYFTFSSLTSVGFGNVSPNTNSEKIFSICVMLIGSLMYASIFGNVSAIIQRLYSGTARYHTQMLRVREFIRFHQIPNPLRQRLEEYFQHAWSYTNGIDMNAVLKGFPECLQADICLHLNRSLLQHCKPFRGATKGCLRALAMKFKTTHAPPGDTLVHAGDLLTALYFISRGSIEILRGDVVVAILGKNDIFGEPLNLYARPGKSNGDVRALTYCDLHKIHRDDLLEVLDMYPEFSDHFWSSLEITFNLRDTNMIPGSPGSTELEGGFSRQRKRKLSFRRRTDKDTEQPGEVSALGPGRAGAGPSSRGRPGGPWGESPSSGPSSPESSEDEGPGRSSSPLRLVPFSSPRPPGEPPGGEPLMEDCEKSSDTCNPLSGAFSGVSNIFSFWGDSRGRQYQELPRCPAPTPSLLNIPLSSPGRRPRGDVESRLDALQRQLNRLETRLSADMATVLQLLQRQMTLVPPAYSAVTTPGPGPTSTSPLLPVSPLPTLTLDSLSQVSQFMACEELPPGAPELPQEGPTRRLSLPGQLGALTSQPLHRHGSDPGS
Nav1.5, sequence (Q14524 whole entry): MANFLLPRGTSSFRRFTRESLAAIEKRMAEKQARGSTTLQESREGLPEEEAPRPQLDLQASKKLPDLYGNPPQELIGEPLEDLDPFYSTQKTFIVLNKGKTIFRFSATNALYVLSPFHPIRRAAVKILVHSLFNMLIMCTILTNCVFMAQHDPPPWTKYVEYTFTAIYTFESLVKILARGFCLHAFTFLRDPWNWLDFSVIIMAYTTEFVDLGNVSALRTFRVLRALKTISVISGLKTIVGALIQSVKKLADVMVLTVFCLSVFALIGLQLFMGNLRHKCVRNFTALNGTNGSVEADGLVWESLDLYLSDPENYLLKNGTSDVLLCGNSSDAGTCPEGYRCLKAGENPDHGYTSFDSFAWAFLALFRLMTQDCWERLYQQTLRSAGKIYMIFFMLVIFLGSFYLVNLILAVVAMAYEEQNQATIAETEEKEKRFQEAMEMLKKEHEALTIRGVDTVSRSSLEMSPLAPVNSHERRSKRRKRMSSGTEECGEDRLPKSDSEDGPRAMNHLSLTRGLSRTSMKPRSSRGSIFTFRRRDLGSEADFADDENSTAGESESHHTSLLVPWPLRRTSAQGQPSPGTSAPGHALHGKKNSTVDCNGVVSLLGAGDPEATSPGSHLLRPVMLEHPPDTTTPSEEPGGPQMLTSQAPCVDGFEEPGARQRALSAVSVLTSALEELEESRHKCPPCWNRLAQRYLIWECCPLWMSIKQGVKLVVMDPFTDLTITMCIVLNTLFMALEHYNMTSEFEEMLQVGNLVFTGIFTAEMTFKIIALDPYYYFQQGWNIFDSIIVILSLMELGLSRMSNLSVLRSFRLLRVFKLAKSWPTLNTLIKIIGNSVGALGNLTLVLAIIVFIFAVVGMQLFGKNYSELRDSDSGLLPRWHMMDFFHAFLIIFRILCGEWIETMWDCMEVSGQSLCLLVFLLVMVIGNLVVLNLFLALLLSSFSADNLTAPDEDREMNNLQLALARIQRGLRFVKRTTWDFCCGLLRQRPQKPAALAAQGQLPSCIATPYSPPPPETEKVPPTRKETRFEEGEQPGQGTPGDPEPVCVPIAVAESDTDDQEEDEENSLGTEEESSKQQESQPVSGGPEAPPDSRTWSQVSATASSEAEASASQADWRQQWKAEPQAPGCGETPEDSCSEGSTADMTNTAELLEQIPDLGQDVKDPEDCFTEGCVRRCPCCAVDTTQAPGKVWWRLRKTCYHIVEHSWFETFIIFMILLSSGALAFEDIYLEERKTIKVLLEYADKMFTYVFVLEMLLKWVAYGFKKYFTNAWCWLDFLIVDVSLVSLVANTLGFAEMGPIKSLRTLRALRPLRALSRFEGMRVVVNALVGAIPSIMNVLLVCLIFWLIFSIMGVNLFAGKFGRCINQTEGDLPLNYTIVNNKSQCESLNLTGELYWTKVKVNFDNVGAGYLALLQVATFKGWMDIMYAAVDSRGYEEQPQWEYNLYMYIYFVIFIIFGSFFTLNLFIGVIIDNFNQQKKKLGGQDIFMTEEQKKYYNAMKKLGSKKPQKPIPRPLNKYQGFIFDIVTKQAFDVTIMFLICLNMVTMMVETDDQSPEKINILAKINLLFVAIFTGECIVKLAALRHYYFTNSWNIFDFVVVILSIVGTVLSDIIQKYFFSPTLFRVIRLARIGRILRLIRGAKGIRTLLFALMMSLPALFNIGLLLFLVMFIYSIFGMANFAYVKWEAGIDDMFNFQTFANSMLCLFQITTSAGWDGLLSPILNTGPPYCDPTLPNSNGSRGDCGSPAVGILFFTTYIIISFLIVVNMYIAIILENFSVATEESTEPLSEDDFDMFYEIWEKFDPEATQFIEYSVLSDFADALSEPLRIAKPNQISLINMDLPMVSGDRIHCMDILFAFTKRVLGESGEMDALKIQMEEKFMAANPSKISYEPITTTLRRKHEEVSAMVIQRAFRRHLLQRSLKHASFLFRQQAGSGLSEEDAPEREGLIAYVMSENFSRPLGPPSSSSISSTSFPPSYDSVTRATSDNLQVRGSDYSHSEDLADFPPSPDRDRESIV
EBOV-GPcl/NPC1-domain C interaction, sequence (Q05320 33-190 limits assumed): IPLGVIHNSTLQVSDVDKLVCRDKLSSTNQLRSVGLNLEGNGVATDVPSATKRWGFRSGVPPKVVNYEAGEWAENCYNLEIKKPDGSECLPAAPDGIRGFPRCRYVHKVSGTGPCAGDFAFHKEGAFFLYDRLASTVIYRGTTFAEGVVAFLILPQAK
EBOV-GPcl/NPC1-domain C interaction, sequence (Q05320 502-676 limits assumed): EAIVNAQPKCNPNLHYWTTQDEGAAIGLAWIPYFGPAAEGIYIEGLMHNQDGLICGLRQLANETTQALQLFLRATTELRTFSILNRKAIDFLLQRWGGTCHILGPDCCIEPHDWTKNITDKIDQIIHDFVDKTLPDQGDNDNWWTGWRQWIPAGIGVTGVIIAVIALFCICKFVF

## O=C(Nc1ccccc1)c1ccc(-c2ccc(OC3CCNCC3)cc2)s1 [compound 57, N-Phenyl-5-(4-(piperidin-4-yloxy)phenyl)thiophene-2-carboxamide]
[1]
  IC50: ~50 µM
[2]
  IC50: > 50 µM
[3]
  half-life at 1 h, 10 µM: 0.483 ± 0.0833 h
[4]
  EC50: 8.16 µM
[5]; ip, 10 mg/kg
  brain concentration: 4.43 µM
  estimated plasma concentration: 2.74 µM
[5]; po, 50 mg/kg
  brain concentration: 14.80 µM
  estimated plasma concentration: 2.04 µM
[6]
  half-life at 1 h, 10 µM: 2.17 ± 0.15 h
[7]
  EC50: 1.68 µM
[8]
  inhibition at 10 µM: 24%
[9]
  MTD: 100 mg/kg
[10]
  EC50: 0.19 µM
[11]
  inhibitory effect on EBOV-GPcl/NPC1-domain C interaction (in words): comparable effect than the control imipramine
[12]; ip, 10 mg/kg
  half-life at 24 h: 5.18 h
  Cmax: 1680 ng/mL
  Cmax at 24 h: 1040 ng/mL
  Tmax: 4 h
  Tmax at 24 h: 0.5 h
[12]; po, 50 mg/kg
  half-life at 24 h: 8.76 h
  Cmax: 773 ng/mL
  Cmax at 24 h: 5600 ng/mL
  Tmax: 4 h
  Tmax at 24 h: 2 h
[13]
  IC50: 48.9 µM
[14]
  CC50 at 24 h: 11 µM
